Where two headings read alike, the source gives them in different places.
Tests used:
HIV-1 (IIIB) = assay: microbe, parasite or virus in culture; assay type: cell-based; conditions: Human immunodeficiency virus 1, IIIB, MT4, 120 h, read-out: MT4 EC50
pLAI reporter virus = assay: microbe, parasite or virus in culture; assay type: cell-based, HIV; conditions: Human immunodeficiency virus 1, MT4, 72 h
in vitro = conditions: human, uninfected MT-4 cells
[1] = HIV-1 (IIIB) in MT-4 cells, 5 days incubation, Cell Titer Glo

| SMILES | EC50 (HIV-1 (IIIB); [1]) | EC50 (pLAI reporter virus; read-out: RLUC 50% HS EC50) | EC50 (pLAI reporter virus; read-out: RLUC CCM EC50) | CC50 at 5 days (in vitro) | EC50 (HIV-1 (IIIB)) |
| --- | --- | --- | --- | --- | --- |
| CSC1=NO[C@@]2(CC[C@H](C)N3C[C@H]2n2cc(C(=O)NCc4c(F)cc(F)cc4F)c(=O)c(O)c2C3=O)C1 [Example 43, (3′S,5S,7′R)-12′-hydroxy-3′-methyl-3-(methylthio)-1′,11′-dioxo-N-(2,4,6-trifluorobenzyl)-1′,4′,5′,11′-tetrahydro-3′H,4H,7′H-spiro[isoxazole-5,6′-[2,7]methanopyrido[1,2-a][1,4]diazonine]-10′-carboxamide] | 6.1 nM | 279 nM | 1.5 nM | 33.4 µM | – |
| C[C@H]1CC[C@]2(CC(Br)=NO2)[C@H]2CN1C(=O)c1c(O)c(=O)c(C(=O)NCc3ccc(F)cc3F)cn12 [Example 44, (3′S,5S,7′R)-3-bromo-N-(2,4-difluorobenzyl)-12′-hydroxy-3′-methyl-1′,11′-dioxo-1′,4′,5′,11′-tetrahydro-3′H,4H,7′H-spiro[isoxazole-5,6′-[2,7]methanopyrido[1,2-a][1,4]diazonine]-10′-carboxamide] | 0.7 nM | 160 nM | 0.1 nM | 24.4 µM | – |
| C[C@H]1CC[C@]2(CC(OC3COC3)=NO2)[C@H]2CN1C(=O)c1c(O)c(=O)c(C(=O)NCc3ccc(F)cc3F)cn12 [Example 45, (3′S,5S,7′R)—N-(2,4-difluorobenzyl)-12′-hydroxy-3′-methyl-3-(oxetan-3-yloxy)-1′,11′-dioxo-1′,4′,5′,11′-tetrahydro-3′H,4H,7′H-spiro[isoxazole-5,6′-[2,7]methanopyrido[1,2-a][1,4]diazonine]-10′-carboxamide] | 2 nM | 1.8 nM | 0.4 nM | ≥ 50 µM | – |
| C[C@H]1CC[C@]2(CC(OCC(F)(F)F)=NO2)[C@H]2CN1C(=O)c1c(O)c(=O)c(C(=O)NCc3ccc(F)cc3F)cn12 [Example 46, (3′S,5S,7′R)—N-(2,4-difluorobenzyl)-12′-hydroxy-3′-methyl-1′,11′-dioxo-3-(2,2,2-trifluoroethoxy)-1′,4′,5′,11′-tetrahydro-3′H,4H,7′H-spiro[isoxazole-5,6′-[2,7]methanopyrido[1,2-a][1,4]diazonine]-10′-carboxamide] | 1.7 nM | 2.3 nM | 0.1 nM | 7.71 µM | – |
| C[C@H]1CC[C@]2(CC(OCC(F)F)=NO2)[C@H]2CN1C(=O)c1c(O)c(=O)c(C(=O)NCc3ccc(F)cc3F)cn12 [Example 47, (3′S,5S,7′R)—N-(2,4-difluorobenzyl)-3-(2,2-difluoroethoxy)-12′-hydroxy-3′-methyl-1′,11′-dioxo-1′,4′,5′,11′-tetrahydro-3′H,4H,7′H-spiro[isoxazole-5,6′-[2,7]methanopyrido[1,2-a][1,4]diazonine]-10′-carboxamide] | 1.8 nM | 6.5 nM | 0.5 nM | 27.5 µM | – |
| COC1=NO[C@@]2(C=C[C@H](C)N3C[C@H]2n2cc(C(=O)NCc4ccc(F)c(Cl)c4F)c(=O)c(O)c2C3=O)C1 [Example 48, (3′S,5R,7′R)—N-(3-chloro-2,4-difluorobenzyl)-12′-hydroxy-3-methoxy-3′-methyl-1′,11′-dioxo-1′,11′-dihydro-3′H,4H,7′H-spiro[isoxazole-5,6′-[2,7]methanopyrido[1,2-a][1,4]diazonine]-10′-carboxamide] | 0.4 nM | 8.1 nM | 0.2 nM | 22.9 µM | – |
| COC1=NO[C@@]2(CC[C@H](C)N3C[C@H]2n2cc(C(=O)NCc4ccc(F)c(Cl)c4F)c(=O)c(O)c2C3=O)C1 [Example 49, (3′S,5S,7′R)—N-(3-chloro-2,4-difluorobenzyl)-12′-hydroxy-3-methoxy-3′-methyl-1′,11′-dioxo-1′,4′,5′,11′-tetrahydro-3′H,4H,7′H-spiro[isoxazole-5,6′-[2,7]methanopyrido[1,2-a][1,4]diazonine]-10′-carboxamide] | 0.7 nM | 124 nM | 0.3 nM | 29.8 µM | – |
| C[C@H]1CC[C@@]2(ON=C3OCCC[C@@H]32)[C@H]2CN1C(=O)c1c(O)c(=O)c(C(=O)NCc3c(F)cc(F)cc3F)cn12 [Example 50, (3S,3a R,3′S,7′R)-12′-hydroxy-3′-methyl-1′,11′-dioxo-N-(2,4,6-trifluorobenzyl)-1′,3a,4,4′,5,5′,6,11′-octahydro-3′H,7′H-spiro[pyrano[2,3-c]isoxazole-3,6′-[2,7]methanopyrido[1,2-a][1,4]diazonine]-10′-carboxamide] | 0.8 nM | 10.3 nM | 0.5 nM | ≥ 50 µM | – |
| CNC1=NO[C@@]2(CC[C@H](C)N3C[C@H]2n2cc(C(=O)NCc4c(F)cc(F)cc4F)c(=O)c(O)c2C3=O)C1 [Example 51, (3′S,5S,7′R)-12′-hydroxy-3′-methyl-3-(methylamino)-1′,11′-dioxo-N-(2,4,6-trifluorobenzyl)-1′,4′,5′,11′-tetrahydro-3′H,4H,7′H-spiro[isoxazole-5,6′-[2,7]methanopyrido[1,2-a][1,4]diazonine]-10′-carboxamide] | 1.3 nM | 5.2 nM | 0.3 nM | 41.1 µM | – |
| C[C@H]1CC[C@]2(CC(N(C)C)=NO2)[C@H]2CN1C(=O)c1c(O)c(=O)c(C(=O)NCc3c(F)cc(F)cc3F)cn12 [Example 52, (3′S,5S,7′R)-3-(dimethylamino)-12′-hydroxy-3′-methyl-1′,11′-dioxo-N-(2,4,6-trifluorobenzyl)-1′,4′,5′,11′-tetrahydro-3′H,4H,7′H-spiro[isoxazole-5,6′-[2,7]methanopyrido[1,2-a][1,4]diazonine]-10′-carboxamide] | – | 6.2 nM | 0.3 nM | 27 µM | 0.9 nM |
| C[C@H]1CC[C@]2(CC(Cl)=NO2)[C@H]2CN1C(=O)c1c(O)c(=O)c(C(=O)NCc3c(F)cc(F)cc3F)cn12 [Example 53, (3′S,5S,7′R)-3-chloro-12′-hydroxy-3′-methyl-1′,11′-dioxo-N-(2,4,6-trifluorobenzyl)-1′,4′,5′,11′-tetrahydro-3′H,4H,7′H-spiro[isoxazole-5,6′-[2,7]methanopyrido[1,2-a][1,4]diazonine]-10′-carboxamide] | – | 166 nM | 0.3 nM | 9.47 µM | 1.7 nM |
| CC1=NO[C@@]2(CC[C@H](CF)N3C[C@H]2n2cc(C(=O)NCc4c(F)cc(F)cc4F)c(=O)c(O)c2C3=O)C1 [Example 54, (3′R,5S,7′R)-3′-(fluoromethyl)-12′-hydroxy-3-methyl-1′,11′-dioxo-N-(2,4,6-trifluorobenzyl)-1′,4′,5′,11′-tetrahydro-3′H,4H,7′H-spiro[isoxazole-5,6′-[2,7]methanopyrido[1,2-a][1,4]diazonine]-10′-carboxamide] | 0.7 nM | 53.7 nM | 0.3 nM | 27.3 µM | – |
| C[C@H]1CC[C@@]2(CCO2)[C@H]2CN1C(=O)c1c(O)c(=O)c(C(=O)NCc3c(F)cc(F)cc3F)cn12 [Example 55, (2R,3′S,7′R)-12′-hydroxy-3′-methyl-1′,11′-dioxo-N-(2,4,6-trifluorobenzyl)-1′,4′,5′,11′-tetrahydro-3′H,7′H-spiro[oxetane-2,6′-[2,7]methanopyrido[1,2-a][1,4]diazonine]-10′-carboxamide] | 1.7 nM | 51 nM | 1.1 nM | ≥ 50 µM | – |

Source: patent US20250115620A1, “BRIDGED TRICYCLIC CARBAMOYLPYRIDONE COMPOUNDS AND USES THEREOF” (Gilead Sciences, Inc., priority 2022, published 2025)
